Data on 22 molecules can be found in patent publication US20230002359A1, “PESTICIDALLY ACTIVE FUSED BICYCLIC HETEROAROMATIC COMPOUNDS” (priority 2019, published 2023).

Where two headings read alike, the source gives them in different places. Some results are limits rather than exact numbers.

Holding throughout (assay type): in vivo
Experiment [1] relates to Diabrotica Balteata (Corn Root Worm). Nature of the experiment: Example B1: Diabrotica balteata (corn root worm), maize sprouts sprayed, L2 larvae. The following applies: 96 h, read-out: control in at least one of the two categories (mortality or growth inhibition). How it is done:
Maize sprouts placed onto an agar layer in 24-well microtiter plates were treated with aqueous test solutions prepared from 10′000 ppm DMSO stock solutions by spraying. After drying, the plates were infested with L2 larvae (6 to 10 per well). The samples were assessed for mortality and growth inhibition in comparison to untreated samples 4 days after infestation.

Experiment [2] deals with Plutella xylostella (Diamond Back Moth). Nature of the experiment: Example B4: Plutella xylostella (diamond back moth), artificial diet, eggs, 24-well. The following applies: 192 h, read-out: control in at least one of the two categories (mortality or growth inhibition). How it is done:
24-well microtiter plates with artificial diet were treated with aqueous test solutions prepared from 10′000 ppm DMSO stock solutions by pipetting. After drying, Plutella eggs were pipetted through a plastic stencil onto a gel blotting paper and the plate was closed with it. The samples were assessed for mortality and growth inhibition in comparison to untreated samples 8 days after infestation.

Experiment [3] concerns Chilo suppressalis (Striped Rice Stemborer). Nature of the experiment: Example B3: Chilo suppressalis (striped rice stemborer), artificial diet, L2 larvae. The following applies: 144 h, read-out: control in at least one of the three categories (mortality, anti-feedant effect, or growth inhibition). As for the experimental part:
24-well microtiter plates with artificial diet were treated with aqueous test solutions prepared from 10′000 ppm DMSO stock solutions by pipetting. After drying, the plates were infested with L2 larvae (6-8 per well). The samples were assessed for mortality, anti-feeding effect, and growth inhibition in comparison to untreated samples 6 days after infestation. Control of Chilo suppressalis by a test sample is given when at least one of the categories mortality, anti-feedant effect, and growth inhibition is higher than the untreated sample.

[4] abbreviates: application rate of 200 ppm, 4 days after infestation, L2 larvae.
The mark [5] stands for this setting: application rate of 200 ppm, 8 days after infestation, eggs.
The mark [6] stands for this setting: application rate of 200 ppm, 6 days after infestation, L2 larvae.

As to `CC(Nc1nccc2c(C(F)(F)F)cc(C(F)(F)F)cc12)c1ncnn1-c1ccc(C#N)cn1` (stereo not shown) [P.210, 6-[5-[1-[[5,7-bis(trifluoromethyl)-1-isoquinolyl]amino]ethyl]-1,2,4-triazol-1-yl]pyridine-3-carbonitrile], the percent control (mortality or growth inhibition) at 200 ppm in experiment [1] (setting [4]) and in experiment [2] (setting [5]) was not below 80% throughout.

As to `CC(Nc1ncnc2c(Br)cc(Cl)cc12)c1ncnn1-c1ccc(C#N)cn1` (stereo not shown) [P.158, 6-[5-[1-[(8-bromo-6-chloro-quinazolin-4-yl)amino]ethyl]-1,2,4-triazol-1-yl]pyridine-3-carbonitrile], the percent control (mortality, anti-feedant effect or growth inhibition) at 200 ppm in experiment [3] (setting [6]) was not below 80%. Also, the percent control (mortality or growth inhibition) at 200 ppm in experiment [2] (setting [5]) is not below 80%.

Turning to `C[C@@H](c1ncnn1-c1ncccn1)N(C)c1c(Cl)cnc2c(C(F)(F)F)cc(C(F)(F)F)cc12` [P.181, 3-chloro-N-methyl-N-[(1S)-1-(2-pyrimidin-2-yl-1,2,4-triazol-3-yl)ethyl]-6,8-bis(trifluoromethyl)quinolin-4-amine], the percent control (mortality or growth inhibition) at 200 ppm in experiment [1] (setting [4]) and in experiment [2] (setting [5]) was not below 80% in each case.

With `CC(c1nccnc1-n1nccn1)N(CC1CC1)c1ncnc2c(C(F)(F)F)cc(Cl)cc12` (stereo not shown) [P.77, 6-chloro-N-(cyclopropylmethyl)-N-[1-[3-(triazol-2-yl)pyrazin-2-yl]ethyl]-8-(trifluoromethyl)quinazolin-4-amine], the percent control (mortality or growth inhibition) at 200 ppm in experiment [1] (setting [4]) and in experiment [2] (setting [5]) was not below 80% each time. Moreover, the percent control (mortality, anti-feedant effect or growth inhibition) at 200 ppm in experiment [3] (setting [6]) was not below 80%.

Consider `COC(=O)N(c1ncnc2c(C(F)(F)F)cc(C(F)(F)F)cc12)C(C)c1ncnn1-c1ccc(C#N)cn1` (stereo not shown) [P.167, methyl N-[6,8-bis(trifluoromethyl)quina-zolin-4-yl]-N-[1-[2-(5-cyano-2-pyridyl)-1,2,4-triazol-3-yl]ethyl]carbamate], for which the percent control (mortality, anti-feedant effect or growth inhibition) at 200 ppm in experiment [3] is not below 80%. The percent control (mortality or growth inhibition) at 200 ppm in experiment [2] is not below 80%.

Turning to `CC(Nc1nc(Cl)nc2c(Cl)cc(C(F)(F)F)cc12)c1ncnn1-c1ncccn1` (stereo not shown) [P.48, 2,8-dichloro-N-[1-(2-pyrimidin-2-yl-1,2,4-triazol-3-yl)ethyl]-6-(trifluoromethyl)quinazolin-4-amine], in experiment [3] (setting [6]), the percent control (mortality, anti-feedant effect or growth inhibition) at 200 ppm was not below 80%.

With `C[C@@H](c1ncnn1-c1ccc(C#N)cn1)N(C(=O)Oc1ccccc1)c1ncnc2c(C(F)(F)F)cc(C(F)(F)F)cc12` [P.226, phenyl N-[6,8-bis(trifluoromethyl)quina-zolin-4-yl]-N-[(1S)-1-[2-(5-cyano-2-pyridyl)-1,2,4-triazol-3-yl]ethyl]carbamate], the percent control (mortality or growth inhibition) at 200 ppm in experiment [1] and in experiment [2] was not below 80% each time. Also, in experiment [3], the percent control (mortality, anti-feedant effect or growth inhibition) at 200 ppm is not below 80%.

With `CC(c1nccnc1-c1ccc(Br)cn1)N(C)c1ncnc2c(C(F)(F)F)cc(Br)cc12` (stereo not shown) [P.196, 6-bromo-N-[1-[3-(5-bromo-2-pyridyl)pyrazin-2-yl]ethyl]-N-methyl-8-(trifluoromethyl)quinazolin-4-amine], in experiment [1] (setting [4]), the percent control (mortality or growth inhibition) at 200 ppm was not below 80%.

Consider `CC(Nc1ccnc2c(C(F)(F)F)cc(C(F)(F)F)cc12)c1nccnc1-c1ncccn1` (stereo not shown) [P.85, N-[1-(3-pyrimidin-2-ylpyrazin-2-yl)ethyl]-6,8-bis(trifluoromethyl)quino-lin-4-amine], for which the percent control (mortality or growth inhibition) at 200 ppm in experiment [1] (setting [4]) and in experiment [2] (setting [5]) was not below 80% in each case. Moreover, in experiment [3] (setting [6]), the percent control (mortality, anti-feedant effect or growth inhibition) at 200 ppm was not below 80%.

`CC(c1nccnc1-c1ncccn1)N(CC1CC1)c1ncnc2c(C(F)(F)F)cc(Br)cc12` (stereo not shown) [P.80, 6-bromo-N-(cyclopropylmethyl)-N-[1-(3-pyrimidin-2-ylpyrazin-2-yl)ethyl]-8-(trifluoromethyl)quinazolin-4-amine]: the percent control (mortality or growth inhibition) at 200 ppm in experiment [1] (setting [4]) and in experiment [2] (setting [5]) was not below 80% throughout. The percent control (mortality, anti-feedant effect or growth inhibition) at 200 ppm in experiment [3] (setting [6]) is not below 80%.

As for `CC(Nc1ncnc2c(C(F)(F)F)cc(C(F)(F)F)cc12)c1ncnn1-c1ccc(F)cn1` (stereo not shown) [P.233, N-[1-[2-(5-fluoro-2-pyridyl)-1,2,4-triazol-3-yl]ethyl]-6,8-bis(trifluoromethyl)quina-zolin-4-amine], the percent control (mortality or growth inhibition) at 200 ppm in experiment [2] (setting [5]) was not below 80%.

Turning to `CC(c1nccnc1-n1nccn1)N(CC1CC1)c1ncnc2c(Cl)cc(C(F)(F)F)cc12` (stereo not shown) [P.76, 8-chloro-N-(cyclopropylmethyl)-N-[1-[3-(triazol-2-yl)pyrazin-2-yl]ethyl]-6-(trifluoromethyl)quinazolin-4-amine], the percent control (mortality or growth inhibition) at 200 ppm in experiment [1] (setting [4]) and in experiment [2] (setting [5]) was not below 80% in each case. Also, the percent control (mortality, anti-feedant effect or growth inhibition) at 200 ppm in experiment [3] (setting [6]) was not below 80%.

On to `CC(Nc1ncnc2c(Cl)cc(C(F)(F)F)cc12)c1ncnn1-c1ccc(Br)cn1` (stereo not shown) [P.267, N-[1-[2-(5-bromo-2-pyridyl)-1,2,4-triazol-3-yl]ethyl]-8-chloro-6-(trifluoromethyl)quinazolin-4-amine], for which, in experiment [3] (setting [6]), the percent control (mortality, anti-feedant effect or growth inhibition) at 200 ppm is not below 80%.

Turning to `CC(Nc1ncnc2c(C(F)(F)F)cc(Br)cc12)c1nccnc1-c1ccc(Br)cn1` (stereo not shown) [P.198, 6-bromo-N-[1-[3-(5-bromo-2-pyridyl)pyrazin-2-yl]ethyl]-8-(trifluoromethyl)quinazolin-4-amine], the percent control (mortality, anti-feedant effect or growth inhibition) at 200 ppm in experiment [3] (setting [6]) is not below 80%. Also, the percent control (mortality or growth inhibition) at 200 ppm in experiment [2] (setting [5]) was not below 80%.

For `C[C@@H](c1ncnn1-c1ccc(C#N)cn1)N(C)c1ncnc2c(C(F)(F)F)cc(C(=O)C3CC3)cc12` [P.170, 6-[5-[(1S)-1-[[6-(cyclopropanecarbonyl)-8-(trifluoromethyl)quinazolin-4-yl]-methyl-amino]ethyl]-1,2,4-triazol-1-yl]pyridine-3-carbonitrile], in experiment [3] (setting [6]), the percent control (mortality, anti-feedant effect or growth inhibition) at 200 ppm is not below 80%. Also, the percent control (mortality or growth inhibition) at 200 ppm in experiment [2] (setting [5]) is not below 80%.

With `CC(c1nccnc1-c1ccc(C#N)cn1)N(CC1CC1)c1ncnc2c(Br)cc(C(F)(F)F)cc12` (stereo not shown) [P.73, 6-[3-[1-[[8-bromo-6-(trifluoromethyl)quinazolin-4-yl]-(cyclopropylmethyl)amino]ethyl]pyrazin-2-yl]pyridine-3-carbonitrile], the percent control (mortality or growth inhibition) at 200 ppm in experiment [1] (setting [4]) and in experiment [2] (setting [5]) was not below 80% throughout. In addition, the percent control (mortality, anti-feedant effect or growth inhibition) at 200 ppm in experiment [3] (setting [6]) is not below 80%.

`CC(Nc1ncnc2c(C(F)(F)F)cc(C(F)(F)F)cc12)c1ncnn1-c1ncc(Br)cn1` (stereo not shown) [P.92, N-[1-[2-(5-bromopyrimidin-2-yl)-1,2,4-triazol-3-yl]ethyl]-6,8-bis(trifluoromethyl)quina-zolin-4-amine]: the percent control (mortality or growth inhibition) at 200 ppm in experiment [1] (setting [4]) and in experiment [2] (setting [5]) was not below 80% in each case. Further, in experiment [3] (setting [6]), the percent control (mortality, anti-feedant effect or growth inhibition) at 200 ppm was not below 80%.

Consider `CC(c1nccnc1-c1ccc(C#N)cn1)N(CC1CC1)c1ncnc2c(Cl)cc(C(F)(F)F)cc12` (stereo not shown) [P.72, 6-[3-[1-[[8-chloro-6-(trifluoromethyl)quinazolin-4-yl]-(cyclopropylmethyl)amino]ethyl]pyrazin-2-yl]pyridine-3-carbonitrile], for which the percent control (mortality or growth inhibition) at 200 ppm in experiment [1] (setting [4]) and in experiment [2] (setting [5]) was not below 80% throughout. Moreover, the percent control (mortality, anti-feedant effect or growth inhibition) at 200 ppm in experiment [3] (setting [6]) is not below 80%.

With `COc1ccc(CN(c2ncnc3c(C(F)(F)F)cc(C(F)(F)F)cc23)C(C)c2nccnc2-c2ncccn2)cc1` (stereo not shown) [P.225, N-[(4-methoxyphenyl)methyl]-N-[1-(3-pyrimidin-2-ylpyrazin-2-yl)ethyl]-6,8-bis(trifluoromethyl)quina-zolin-4-amine], the percent control (mortality or growth inhibition) at 200 ppm in experiment [1] (setting [4]) and in experiment [2] (setting [5]) was not below 80% throughout. Moreover, in experiment [3] (setting [6]), the percent control (mortality, anti-feedant effect or growth inhibition) at 200 ppm was not below 80%.

Take `CC(Nc1nc(Cl)nc2c(Br)cc(C(F)(F)F)cc12)c1ncnn1-c1ncccn1` (stereo not shown) [P.51, 8-bromo-2-chloro-N-[1-(2-pyrimidin-2-yl-1,2,4-triazol-3-yl)ethyl]-6-(trifluoromethyl)quinazolin-4-amine]: in experiment [3] (setting [6]), the percent control (mortality, anti-feedant effect or growth inhibition) at 200 ppm is not below 80%.

As to `CC(c1nccnc1-n1nccn1)N(C)c1ncnc2c(Br)cc(OC(F)(F)F)cc12` (stereo not shown) [P.179, 8-bromo-N-methyl-N-[1-[3-(triazol-2-yl)pyrazin-2-yl]ethyl]-6-(trifluoromethoxy)quinazo-lin-4-amine], the percent control (mortality or growth inhibition) at 200 ppm in experiment [1] (setting [4]) and in experiment [2] (setting [5]) was not below 80% in each case. Moreover, the percent control (mortality, anti-feedant effect or growth inhibition) at 200 ppm in experiment [3] (setting [6]) is not below 80%.

On to `CC(Nc1ncnc2c(C(F)(F)F)cc(C(F)(F)F)cc12)c1ncnn1-c1ccc(Br)cn1` (stereo not shown) [P.268, N-[1-[2-(5-bromo-2-pyridyl)-1,2,4-triazol-3-yl]ethyl]-6,8-bis(trifluoromethyl)quina-zolin-4-amine], for which the percent control (mortality or growth inhibition) at 200 ppm in experiment [1] (setting [4]) and in experiment [2] (setting [5]) was not below 80% throughout.
